The text below walks through data of patent US9868730B2, “Kappa opioid receptor selective compounds, compositions, and uses thereof” (The Trustees of Columbia University in the City of New York, priority 2013, dated 2018).

Entries after “also recorded” stand apart in the source; their conditions may differ. Bounds are passed on as bounds.

For assay [1], the target named is T1, KOP receptor (Homo sapiens, UniProt P41145). Description: Competitive inhibition of 3H-diprenorphine binding, membranes of transfected HEK293T cells. More on the design: host or cells: HEK293T. The note with it: for inhibition of 3H-diprenorphine binding: 100 μM compound, room temperature, 1 hour; for inhibition of 3H-diprenorphine binding / Ki: 0.3 nM 3H-diprenorphine; for Ki: means ± S.E.M. (n = 3), read-out: Ki KOP. The method, then:
(§1) Two days after transfection with human KOP receptor and GαoB, HEK293T cells were lysed and membranes were prepared in HEPES buffer (NaCl 140 mM, KCl 5.4 mM, HEPES 25 mM, EDTA 1 mM, MgCl2 2 mM, BSA 0.006%, pH 7.4) using a Polytron homogenizer. Membranes were incubated with ^3H-diprenorphine (0.3 nM) (PerkinElmer, Waltham, Mass.) at room temperature for 1 hour in a final volume of 1 ml, in the absence or presence of various concentrations of each small-molecule selected from the virtual screening. Membranes were then harvested using a Brandel cell harvester through a Whatman FPD-24 934AH glass-fiber filter and washed three times with ice-cold wash Buffer (Tris-HCl 10 mM, NaCl 120 mM, pH 7.4). Non-specific binding was determined using 400 nM of NorBNI.
The primary experimental testing of MCKK-1-22 consisted of performing a competitive inhibition binding assay at the hKOP receptor. Membranes of HEK293T cells transfected with the hKOP receptor and GαoB were prepared and incubated with ^3H-diprenorphine (0.3 nM) in the absence or presence of 10 or 100 μM of each small-molecule from the virtual screening.
(§2) To assess the degree of selectivity of MCKK-4, MCKK-5, MCKK-13, MCKK-17R or MCKK-17S for the hKOP over the DOP and MOP receptors, competitive inhibition of ^3H-diprenorphine (0.3 nM) binding in the absence or presence of various concentrations of each molecule were performed, and their Ki values for each receptor were determined (Table 2 below).

For assay [2], the target named is T1, KOP receptor. Description: BRET-based G protein (GαoB) activation assay in HEK293T cells. On the set-up: host or cells: HEK293T. The note with it: for EC50: hKOP co-expressed with GαoB-RLuc8, β1, mVenus-γ2, read-out: potency (EC50) of GαoB activation at hKOP; for agonistic activity at hKOP (G protein activation), in words: relative to EKC. It counts as cell-based. The text has this: (§3) The cDNAs for human KOP (hKOP) receptor and the G protein GαoB were obtained from the Missouri S&T cDNA Resource Center. For arrestin recruitment experiments, full-length Renilla luciferase 8 (RLuc8, provided by S. Gambhir) was fused in-frame to the C terminus of the hKOP receptor in the pcDNA3.1 vector. The following human G protein constructs were provided by C. Gales (Gales et al., 2006; Sauliere et al., 2012): GαoB with RLuc8 inserted at position 91 (GαoB-RLuc8); untagged Gβ1 (β1); untagged Gγ2 (γ2). The human γ2 subunit was fused to full-length mVenus at its N terminus (mVenus-γ2), and the fusion construct human arrestin3-mVenus was used as previously described (Klewe et al., 2008). All constructs were confirmed by sequencing analysis. A total of 20 μg of plasmid cDNA (e.g. 0.2 μg of hKOR-RLuc8, 15 μg of arrestin3-mVenus, and 4.8 μg of pcDNA3.1) was transfected into HEK-293T cells using polyethylenimine (Polysciences Inc., Warrington, Pa.) in a 1:3 ratio in 10-cm dishes. Cells were maintained in culture with DMEM supplemented with 10% FBS. The transfected ratio among receptor, Gα, β1, and γ2, or arrestin was optimized by testing various ratios of plasmids encoding the different sensors. Experiments were performed 48 hours after transfection.
(§4) BRET was performed as described (Guo et al., 2008). Briefly, two days after transfection, cells were harvested, washed, and re-suspended in a phosphate-buffered saline (PBS) solution. Approximately 200,000 cells/well were distributed in 96-well plates, and 5 μM coelenterazine H (luciferase substrate) was added to each well. Five minutes after the addition of coelenterazine H, ligands were added to each well, and after 2 minutes for G protein activation or 5 minutes for arrestin recruitment, the BRET signal was determined by quantifying and calculating the ratio of the light emitted by mVenus, the energy acceptor (510-540 nm), over that emitted by RLuc8, the energy donor (485 nm). The drug-induced BRET signal was normalized, taking the Emax of the ethylketocyclazocine (EKC)-induced response as 100%. To measure cAMP accumulation, a BRET-based cAMP in a previously described YFP-Epac-RLuc (CAMYEL) assay was used (Jiang et al., 2007). GαoB B, β1, and γ2 were co-expressed to enhance the signal-to-noise ratio, and the cells were treated for 5 minutes with 100 μM forskolin prior to stimulation (Jiang et al., 2007). The data were normalized and represented as the percentage of forskolin-stimulated cAMP accumulation with 0 defined as the maximal inhibition elicited by EKC.
To assess whether any of these molecules had agonistic activity, a BRET-based G protein activation assay where the hKOP receptor was co-expressed in HEK293T cells with GαoB-RLuc8, β1, and mVenus-γ2 was used. The drug-induced BRET signal is interpreted as a dissociation of and/or conformational change within the Gαβγ complex, and thus, as the activation of the co-expressed G protein.
(In general: In BRET a luciferase serves as donor, and the signal depends on an acceptor being close.)

In assay [3] the target is T1, KOP receptor. Description: BRET-based arrestin3 recruitment assay. More on the design: host or cells: HEK293T. To be noted: hKOP-RLuc8 with arrestin3-mVenus; read-out: potency of arrestin3 recruitment at hKOP. It counts as cell-based.
Excerpt: as §3
BRET was performed as described (Guo et al., 2008). Briefly, two days after transfection, cells were harvested, washed, and re-suspended in a phosphate-buffered saline (PBS) solution. Approximately 200,000 cells/well were distributed in 96-well plates, and 5 μM coelenterazine H (luciferase substrate) was added to each well. Five minutes after the addition of coelenterazine H, ligands were added to each well, and after 2 minutes for G protein activation or 5 minutes for arrestin recruitment, the BRET signal was determined by quantifying and calculating the ratio of the light emitted by mVenus, the energy acceptor (510-540 nm), over that emitted by RLuc8, the energy donor (485 nm). The drug-induced BRET signal was normalized, taking the Emax of the ethylketocyclazocine (EKC)-induced response as 100%. […]

The target in assay [4] is T2, DOP receptor (Homo sapiens, UniProt P41143). Description: BRET-based G protein activation assay. It is filed as cell-based. On the set-up: expressed in transfected cells. The note with it: for EC50: read-out: potency of G protein activation at DOP. The method, then: as §4
For assay [5], the target named is T3, MOP receptor (Homo sapiens, UniProt P35372). Kind of assay: BRET-based G protein activation assay. It is filed as cell-based. On the set-up: expressed in transfected cells. The method, then: as §4
Assay [6] has as its target T1, KOP receptor. Description: G protein bias from BRET-based G protein activation and arrestin recruitment assays. It is filed as cell-based.
Assay [7] deals with T2, DOP receptor. Description: Competitive inhibition of 3H-diprenorphine binding. The note with it: 0.3 nM 3H-diprenorphine; means ± S.E.M. (n = 3). As for the experimental part:
as §1, §2

The target of assay [8] is T3, MOP receptor. Description: Competitive inhibition of 3H-diprenorphine binding. The note with it: 0.3 nM 3H-diprenorphine; means ± S.E.M. (n = 3). As for the experimental part: as §1, §2

As to `O=C(CN1CCCC1C(=O)Nc1nccs1)Nc1cccc(F)c1` (racemic) [MCKK-17, 1-(2-(3-fluorophenylamino)-2-oxoethyl)-N-(thiazol-2-yl)pyrrolidine-2-carboxamide], the “inhibition of 3H-diprenorphine binding” value is reported as “partially but significantly inhibited” at KOP receptor [1] and “significantly inhibited” at KOP receptor [1] (listed as MCKK-17(R/S)). For the same compound, the EC50 on KOP receptor [2] was 8.3 ± 4 µM; on KOP receptor [3] it was 164 ± 38 µM; at DOP receptor [4], more than 1000 µM. The “agonistic activity at hKOP (G protein activation), in words” value (“agonistic activity at hKOP” below) at KOP receptor [2] is recorded as “exhibited agonistic activity”. For the same compound, the “agonistic activity at MOP (G protein activation), in words” value (“agonistic activity at MOP” below) on MOP receptor [5] is listed as “Neither the racemic nor the MCKK-17 stereoisomers displayed significant activity”.
Turning to `CC[C@]12CCN(CC3CC3)[C@H](C(=O)c3ccc(O)cc31)[C@@H]2C` [EKC, ethylketocyclazocine], the “bias toward G protein activation over arrestin” value on KOP receptor [6] is given as “non-biased”.
Turning to `O=C(Nc1cccc(-n2cccn2)c1)C1CCCN1Cc1c[nH]cn1` (centres unmarked) [MCKK-4], the Ki (commonly the equilibrium dissociation constant of an inhibitor or competing ligand from its target) at DOP receptor [7] is 641 ± 192 µM; at MOP receptor [8] it was 906 ± 836 µM; at KOP receptor [1], 292 ± 209 µM. The “inhibition of 3H-diprenorphine binding” value on KOP receptor [1] is on record as “partially but significantly inhibited”. The “agonistic activity at hKOP” value on KOP receptor [2] was “None of the other molecules, MCKK-4, MCKK-5 and MCKK-13, significantly activated GoB”.
Consider `CN(CC(=O)NC1CCN(Cc2ccccc2)C1)Cc1ccco1` (centres unmarked) [MCKK-5], for which the Ki on DOP receptor [7] turned out to be 179 ± 187 µM; on MOP receptor [8], 428 ± 137 µM; on KOP receptor [1], 134 ± 81 µM. For the same compound, at KOP receptor [1], the “inhibition of 3H-diprenorphine binding” value is on record as “partially but significantly inhibited”. In addition, on KOP receptor [2], the “agonistic activity at hKOP” value was “None of the other molecules, MCKK-4, MCKK-5 and MCKK-13, significantly activated GoB”.
For `O=S1(=O)CCC(NCc2cccc(OCCn3ccnc3)c2)C1` (centres unmarked) [MCKK-13], the Ki on DOP receptor [7] is 300 ± 99 µM; at MOP receptor [8], more than 10000 µM; at KOP receptor [1], 453 ± 27 µM. For the same compound, on KOP receptor [1], the “inhibition of 3H-diprenorphine binding” value is recorded as “partially but significantly inhibited”. Moreover, the “agonistic activity at hKOP” value at KOP receptor [2] is “None of the other molecules, MCKK-4, MCKK-5 and MCKK-13, significantly activated GoB”.
Turning to `O=C(CN1CCC[C@@H]1C(=O)Nc1nccs1)Nc1cccc(F)c1` [MCKK-17R, (R)-1-(2-(3-fluorophenylamino)-2-oxoethyl)-N-(thiazol-2-yl)pyrrolidine-2-carboxamide], the Ki at DOP receptor [7] amounted to 286 µM; at MOP receptor [8], 508 µM; at KOP receptor [1], 2900 µM. The EC50 on KOP receptor [2] is 115 ± 9 µM; at KOP receptor [3], more than 1000 µM; on DOP receptor [4], more than 1000 µM. Moreover, the “agonistic activity at DOP (G protein activation), in words” value on DOP receptor [4] is “most active enantiomer at the DOP receptor”. Besides, the “agonistic activity at MOP” value at MOP receptor [5] was “Neither the racemic nor the MCKK-17 stereoisomers displayed significant activity”.
In the case of `O=C(CN1CCC[C@H]1C(=O)Nc1nccs1)Nc1cccc(F)c1` [MCKK-17S, (S)-1-(2-(3-fluorophenylamino)-2-oxoethyl)-N-(thiazol-2-yl)pyrrolidine-2-carboxamide], the Ki on DOP receptor [7] is more than 10000 µM. This compound showed an inhibition constant Ki on MOP receptor [8] of more than 10000 µM. Further, the “bias toward G protein activation over arrestin” value at KOP receptor [6] is on record as “not biased toward G protein activation over arrestin”. At KOP receptor [1], the “selectivity for hKOP over DOP and MOP receptors (binding affinity)” value was “exhibited selectivity for the hKOP receptor”; the Ki is 123 ± 38 µM. Moreover, at KOP receptor [2], the “selectivity for hKOP relative to MOP and DOP receptors (G protein activation)” value was “selective for hKOP relative to MOP and DOP receptors”; the EC50 worked out at 7.2 ± 3.8 µM; the “agonistic activity at hKOP” value is recorded as “full agonism relative to EKC; also recorded: more active stereoisomer”. Besides, the EC50 at KOP receptor [3] was 123 ± 47 µM. For the same compound, at DOP receptor [4], the “agonistic activity at DOP (G protein activation), in words” value is “did not significantly activate the DOP receptor” and the EC50 was more than 1000 µM. Moreover, at MOP receptor [5], the “agonistic activity at MOP” value is listed as “Neither the racemic nor the MCKK-17 stereoisomers displayed significant activity”.
As for `O=C(N[C@@H]1CC[C@@]2(O)C3Cc4ccc(O)c5c4[C@@]2(CCN3CC2CC2)[C@H]1O5)c1ccc2ccccc2c1` [NNTA], on KOP receptor [6], the “bias toward G protein activation over arrestin” value is on record as “non-biased”.
On to `Oc1ccc2c(c1)[C@@]13CCCC[C@@]1(O)[C@@H](C2)N(CC1CCC1)CC3` [butorphanol], for which, on KOP receptor [6], the “bias toward G protein activation over arrestin” value is reported as “showed bias toward G protein activation over arrestin”.
Consider `C[C@H]1[C@H]2Cc3ccc(O)cc3[C@]1(C)CCN2CC1CC1` [cyclazocine], for which the “bias toward G protein activation over arrestin” value at KOP receptor [6] is listed as “showed bias toward G protein activation over arrestin; also recorded: biased toward G protein activation”.
Take `CN1CC[C@]23CCCC[C@H]2[C@H]1Cc1ccc(O)cc13` [levorphanol]: the “bias toward G protein activation over arrestin” value at KOP receptor [6] was “showed bias toward G protein activation over arrestin”.
